Laboratory results as given in US11673866B2, “Estrogen receptor beta ligands for the prevention and treatment of multiple sclerosis (MS) and other demyelinating, inflammatory and neurodegenerative diseases” (The Board of Trustees of the University of Illinois, priority 2018, dated 2023).
Entries after “also recorded” stand apart in the source; their conditions may differ.

What was measured:
[1] = tested on: EAE mice; experiment: Rotarod behavioral assay in EAE mice; assay type: in vivo, mouse; parameters: key to Disability: Rotarod performance: ‘+’ indicate marker was significantly (p ≤ 0.05) increased in treatment group relative to vehicle; ‘−’ indicates marker was significantly (p ≤ 0.05) decreased in treatment group relative to vehicle; ○: ‘o’ indicate marker did not change relative to vehicle; conditions: for Disability: Rotarod performance: vs vehicle; for rotarod performance (motor function): therapeutic s.c. from day 8 (postEAE)
Procedure: Rotarod behavioral assay: Motor behavior was tested up to two times per week for each mouse using a rotarod apparatus (Med Associates, Inc., St. Albans, Vt.). Briefly, animals were placed on a rotating horizontal cylinder for a maximum of 200 seconds. The amount of time the mouse remained walking on the cylinder without falling was recorded. Each mouse was tested on a speed of 3-30 rpm and given three trials for any given day. The three trials were averaged to report a single value for an individual mouse, and averages were then calculated for all animals within a given treatment group (Moore et al., 2014). The first two trial days prior to immunization served as practice trials.
As a complementary assay of motor function, mice were tested on a rotarod device following a previously described protocol (Moore et al., 2014). […] (FIG. 2B).

[2] = Uterus to body weight ratio in EAE mice; assay type: in vivo, mouse; conditions: therapeutic treatment (postEAE), female EAE mice
Description: Estrogens increase uterine weight by acting primarily through ERα (Hewitt and Korach, 2003).

[3] = tested on: primary OPCs/OLs; experiment: Primary OPC/OL differentiation and survival (O4, MOG, DAPI staining); assay type: cell-based, mouse; conditions: vs vehicle-treated cells, FIG. 12B
Description: FIG. 12A is representative images of primary OPCs/OLs from wells containing differentiating media in the presence of different analogues. OLs were immunostained with an antigen on the surface of oligodendrocyte progenitors, O4, a marker of mature oligodendrocytes, myelin oligodendrocyte glycoprotein, MOG and co-stained with nuclear stain DAPI.
FIG. 12B and FIG. 12C show quantification of the effects of treatment on the number of MOG+ OLs and the number of total cells (DAPI), respectively. […] There were 3 wells/treatment group. n=3 independent experiments were performed. One-Way ANOVA with Dunnett's multiple comparisons test.
The effect on cell differentiation and survival of estrogen receptor § (ERP) ligand IndCl and analogs were investigated. Some estrogen receptor § (ERP) ligands increase primary mouse oligodendrocyte differentiation (FIGS. 12A-12C).

[4] = Post (therapeutic, postEAE) treatment of EAE mice

Row | Compound | Disability: Rotarod performance [1, 4] | Disability: Rotarod performance ([1]; Pre (prophylactic, preEAE) E2 treatment of EAE mice) | rotarod performance (motor function) [1] | uterus to body weight ratio [2] | number of MOG+ OLs [3]
1 | C[C@]12CC[C@@H]3c4ccc(O)cc4CC[C@H]3[C@@H]1CC[C@@H]2O [E2, 170 estradiol] | ○ | + | – | – | –
2 | Oc1ccc(-n2nc3ccc(O)cc3c2Cl)cc1 [IndCl, chloroindazole] | ○ | – | had a tendency to fall from the cylinder abruptly | neither IndCl nor its analogues significantly increased this ratio | significant increase
3 | Cc1cc(O)ccc1-n1nc2ccc(O)cc2c1Cl [IndCl-o-Me, 3-chloro-2-(4-hydroxy-2-methylphenyl)-2H-indazol-5-ol] | + | – | improved rotarod performance; also recorded: greatest improvement in motor function | – | –
4 | Oc1ccc(-n2nc3ccc(O)cc3c2Cl)c(Cl)c1 [IndCl-o-Cl, 3-chloro-2-(2-chloro-4-hydroxyphenyl)-2H-indazol-5-ol] | + | – | increase of EAE mice remaining on the rotarod; also recorded: improved rotarod performance | – | –
